US20140094465A1, “Compounds as S-Nitrosoglutathione Reductase Inhibitors” (N30 PHARMACEUTICALS, INC., priority 2011, published 2014)

What follows are compounds tested against T1, S-nitrosoglutathione reductase (GSNOR) (Homo sapiens, UniProt P11766) (assay: GSNOR assay (inhibition of GSNOR activity, NADH absorbance at 340 nm)). Details: not given.
T1 construct: made in house; host or cells: E. coli
Format: biochemical
Summary of the method: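 Recombinant GSNOR purified from E. coli, tag removed. Final conditions: 100 mM NaPO4 pH 7.4, 0.240 mM GSNO, 0.300 mM NADH, 0.5 μg/mL enzyme, 1% DMSO; NADH loss followed as 340 nm absorbance change over 3 min at 25 °C. Compounds 100–0.003 μM, triplicate; IC50 by curve analysis.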

T1 sequence (P11766 whole entry): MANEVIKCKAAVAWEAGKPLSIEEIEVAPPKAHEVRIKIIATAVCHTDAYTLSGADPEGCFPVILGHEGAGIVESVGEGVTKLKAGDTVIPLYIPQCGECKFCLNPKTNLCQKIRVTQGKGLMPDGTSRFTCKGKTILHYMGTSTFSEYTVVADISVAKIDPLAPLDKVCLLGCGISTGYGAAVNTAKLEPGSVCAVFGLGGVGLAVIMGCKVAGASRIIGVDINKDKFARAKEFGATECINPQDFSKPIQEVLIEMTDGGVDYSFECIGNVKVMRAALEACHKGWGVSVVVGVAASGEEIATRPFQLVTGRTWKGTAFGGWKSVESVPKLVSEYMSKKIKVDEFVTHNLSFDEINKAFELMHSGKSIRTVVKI

Row | Structure (SMILES) | IC50
1 | O=C(O)c1ccc(-n2c(C(F)(F)F)nc3cc(O)ccc3c2=O)cc1 [VIII-2, 4-(7-hydroxy-4-oxo-2-(trifluoromethyl)quinazolin-3(4H)-yl)benzoic acid] | 100 to 1000 nM

Same assay, conditions: GSNOR inhibitor activity, Tables 1-6; read-out: IC50 range

Row | IC50 | Structure (SMILES)
2 | 100 to 1000 nM | O=C(O)c1ccc(NCc2ccc(O)c(F)c2F)c(F)c1 [VI-32, 4-((2,3-difluoro-4-hydroxybenzyl)amino)-3-fluorobenzoic acid]
3 | 1000 to 10000 nM | O=C(O)c1ccc(NCc2ccc(O)cc2F)c(F)c1 [VI-33, 3-fluoro-4-((2-fluoro-4-hydroxybenzyl)amino)benzoic acid]

Same assay, conditions: Table 7; GSNOR inhibition, IC50 range class a/b/c; read-out: IC50

Row | IC50 | Structure (SMILES)
4 | 100 to 1000 nM | O=C(O)c1ccc(-c2csc(-c3ccc(O)cc3)n2)cc1 [VII-2, 4-(2-(4-hydroxyphenyl)thiazol-4-yl)benzoic acid]
5 | < 100 nM | O=C(O)c1ccc(-c2csc(-c3ccc(O)c(F)c3)n2)s1 [VII-3, 5-(2-(3-fluoro-4-hydroxyphenyl)thiazol-4-yl)thiophene-2-carboxylic acid]
6 | 100 to 1000 nM | O=C(O)c1ccc(-c2ccc(-c3ccc(O)cc3)s2)cc1 [VII-4, 4-(5-(4-hydroxyphenyl)thiophen-2-yl)benzoic acid]
7 | 100 to 1000 nM | O=C(O)c1cccc(-c2csc(-c3ccc(O)c(F)c3)n2)c1 [VII-5, 3-(2-(3-fluoro-4-hydroxyphenyl)thiazol-4-yl)benzoic acid]
8 | 100 to 1000 nM | O=C(O)c1ccc(-c2ccc(-c3ccc(O)c(F)c3)s2)cc1 [VII-7, 4-(5-(3-fluoro-4-hydroxyphenyl)thiophen-2-yl)benzoic acid]
9 | 100 to 1000 nM | O=C(O)c1ccc(-c2ccc(-c3ccc(O)cc3F)s2)cc1 [VII-8, 4-(5-(2-fluoro-4-hydroxyphenyl)thiophen-2-yl)benzoic acid]
10 | < 100 nM | O=C(O)c1ccc(-c2cnc(-c3ccc(O)c(F)c3)s2)s1 [VII-10, 5-(2-(3-fluoro-4-hydroxyphenyl)thiazol-5-yl)thiophene-2-carboxylic acid]
11 | 100 to 1000 nM | O=C(O)c1ccc(-c2ccc(-c3ccc(O)cc3)cc2)cc1 [VII-11, 4″-hydroxy-[1,1′:4′,1″-terphenyl]-4-carboxylic acid]
12 | 1000 to 10000 nM | O=C(O)c1ccc(-c2ncc(-c3ccc(O)cc3)cn2)cc1 [VII-14, 4-(5-(4-hydroxyphenyl)pyrimidin-2-yl)benzoic acid]
13 | < 100 nM | O=C(O)c1ccc(-c2ccc(-c3ccc(O)c(F)c3)s2)s1 [VII-17, 5′-(3-fluoro-4-hydroxyphenyl)-[2,2′-bithiophene]-5-carboxylic acid]
14 | 100 to 1000 nM | O=C(O)c1ccc(-c2cc(-c3ccc(O)cc3)cs2)s1 [VII-19, 4′-(4-hydroxyphenyl)-[2,2′-bithiophene]-5-carboxylic acid]
15 | 100 to 1000 nM | O=C(O)c1ccc(-c2ccc(-c3ccc(O)cc3)cc2)s1 [VII-21, 5-(4′-hydroxy-[1,1′-biphenyl]-4-yl)thiophene-2-carboxylic acid]
16 | 1000 to 10000 nM | O=C(O)c1ccc(-c2ccc(-c3ccc(O)cc3)[nH]2)cc1 [VII-23, 4-(5-(4-hydroxyphenyl)-1H-pyrrol-2-yl)benzoic acid]
17 | 100 to 1000 nM | CCCCn1c(-c2ccc(O)cc2)ccc1-c1ccc(C(=O)O)s1 [VII-26, 5-(1-butyl-5-(4-hydroxyphenyl)-1H-pyrrol-2-yl)thiophene-2-carboxylic acid]
18 | < 100 nM | CC(C)CCn1c(-c2ccc(O)cc2)ccc1-c1ccc(C(=O)O)cc1 [VII-28, 4-(5-(4-hydroxyphenyl)-1-isopentyl-1H-pyrrol-2-yl)benzoic acid]
19 | < 100 nM | CC(C)CCCn1c(-c2ccc(O)cc2)ccc1-c1ccc(C(=O)O)cc1 [VII-30, 4-(5-(4-hydroxyphenyl)-1-(4-methylpentyl)-1H-pyrrol-2-yl)benzoic acid]
20 | 100 to 1000 nM | COCCn1c(-c2ccc(O)cc2)ccc1-c1ccc(C(=O)O)cc1 [VII-33, 4-(5-(4-hydroxyphenyl)-1-(2-methoxyethyl)-1H-pyrrol-2-yl)benzoic acid]
21 | < 100 nM | CCCn1c(-c2ccc(O)cc2)ccc1-c1ccc(C(=O)O)cc1 [VII-37, 4-(5-(4-hydroxyphenyl)-1-propyl-1H-pyrrol-2-yl)benzoic acid]

The next lines start with the compound.

Row | Structure (SMILES) | IC50
22 | O=C(O)c1ccc(-c2nc(-c3ccc(O)cc3)cs2)cc1 [VII-1, 4-(4-(4-hydroxyphenyl)thiazol-2-yl)benzoic acid] | 1000 to 10000 nM
23 | O=C(O)c1ccc(-c2csc(-c3ccc(O)c(F)c3)n2)cc1 [VII-6, 4-(2-(3-fluoro-4-hydroxyphenyl)thiazol-4-yl)benzoic acid] | 100 to 1000 nM
24 | O=C(O)c1ccc(-c2csc(-c3ccc(O)cc3)n2)s1 [VII-9, 5-(2-(4-hydroxyphenyl)thiazol-4-yl)thiophene-2-carboxylic acid] | < 100 nM
25 | O=C(O)c1ccc(-c2ccc(-c3ccc(O)cc3)s2)s1 [VII-12, 5′-(4-hydroxyphenyl)-2,2′-bithiophene-5-carboxylic acid] | 100 to 1000 nM
26 | O=C(O)c1ccc(-c2ncc(-c3ccc(O)cc3)s2)s1 [VII-13, 5-(5-(4-hydroxyphenyl)thiazol-2-yl)thiophene-2-carboxylic acid] | 100 to 1000 nM
27 | O=C(O)c1ccc(-c2cnc(-c3ccc(O)cc3)nc2)cc1 [VII-15, 4-(2-(4-hydroxyphenyl)pyrimidin-5-yl)benzoic acid] | 1000 to 10000 nM
28 | O=C(O)c1ccc(-c2cnc(-c3ccc(O)cc3)s2)s1 [VII-16, 5-(2-(4-hydroxyphenyl)thiazol-5-yl)thiophene-2-carboxylic acid] | < 100 nM
29 | O=C(O)c1cccc(-c2csc(-c3ccc(O)cc3)n2)c1 [VII-18, 3-(2-(4-hydroxyphenyl)thiazol-4-yl)benzoic acid] | 1000 to 10000 nM
30 | O=C(O)c1ccc(-c2csc(-c3ccc(O)cc3)c2)s1 [VII-20, 5′-(4-hydroxyphenyl)-[2,3′-bithiophene]-5-carboxylic acid] | 100 to 1000 nM
31 | Cn1c(-c2ccc(O)cc2)ccc1-c1ccc(C(=O)O)s1 [VII-24, 5-(5-(4-hydroxyphenyl)-1-methyl-1H-pyrrol-2-yl)thiophene-2-carboxylic acid] | 100 to 1000 nM
32 | COCCn1c(-c2ccc(O)cc2)ccc1-c1ccc(C(=O)O)s1 [VII-25, 5-(5-(4-hydroxyphenyl)-1-(2-methoxyethyl)-1H-pyrrol-2-yl)thiophene-2-carboxylic acid] | < 100 nM
33 | CC(C)CCn1c(-c2ccc(O)cc2)ccc1-c1ccc(C(=O)O)s1 [VII-27, 5-(5-(4-hydroxyphenyl)-1-isopentyl-1H-pyrrol-2-yl)thiophene-2-carboxylic acid] | < 100 nM
34 | CC(C)Cn1c(-c2ccc(O)cc2)ccc1-c1ccc(C(=O)O)cc1 [VII-29, 4-(5-(4-hydroxyphenyl)-1-isobutyl-1H-pyrrol-2-yl)benzoic acid] | < 100 nM
35 | CC(C)OCCCn1c(-c2ccc(O)cc2)ccc1-c1ccc(C(=O)O)cc1 [VII-31, 4-(5-(4-hydroxyphenyl)-1-(3-isopropoxypropyl)-1H-pyrrol-2-yl)benzoic acid] | < 100 nM
36 | CC(C)n1c(-c2ccc(O)cc2)ccc1-c1ccc(C(=O)O)cc1 [VII-32, 4-(5-(4-hydroxyphenyl)-1-isopropyl-1H-pyrrol-2-yl)benzoic acid] | < 100 nM
37 | CCCCCCn1c(-c2ccc(O)cc2)ccc1-c1ccc(C(=O)O)cc1 [VII-34, 4-(1-hexyl-5-(4-hydroxyphenyl)-1H-pyrrol-2-yl)benzoic acid] | < 100 nM
38 | CCOCCn1c(-c2ccc(O)cc2)ccc1-c1ccc(C(=O)O)cc1 [VII-35, 4-(1-(2-ethoxyethyl)-5-(4-hydroxyphenyl)-1H-pyrrol-2-yl)benzoic acid] | < 100 nM
39 | CCOCCCn1c(-c2ccc(O)cc2)ccc1-c1ccc(C(=O)O)cc1 [VII-36, 4-(1-(3-ethoxypropyl)-5-(4-hydroxyphenyl)-1H-pyrrol-2-yl)benzoic acid] | < 100 nM

Same assay, conditions: Table 8; GSNOR inhibition, IC50 range class a/b/c; read-out: IC50

Row | IC50 | Structure (SMILES)
40 | 1000 to 10000 nM | CSc1nc2cc(O)ccc2c(=O)n1-c1ccc(C(=O)O)cc1 [VIII-1, 4-(7-hydroxy-2-(methylthio)-4-oxoquinazolin-3(4H)-yl)benzoic acid]
41 | < 100 nM | O=C(O)c1ccc(-n2ccc3cc(O)ccc3c2=O)cc1 [VIII-3, 4-(6-hydroxy-1-oxoisoquinolin-2(1H)-yl)benzoic acid]
42 | 1000 to 10000 nM | O=C(O)c1ccc(N2CCc3cc(O)ccc3C2)cc1 [VIII-6, 4-(6-hydroxy-3,4-dihydroisoquinolin-2(1H)-yl)benzoic acid]
43 | 1000 to 10000 nM | O=C(O)c1ccc(-c2cc(=O)c3cc(O)ccc3[nH]2)c(Cl)c1 [VIII-9, 3-chloro-4-(6-hydroxy-4-oxo-1,4-dihydroquinolin-2-yl)benzoic acid]
44 | < 100 nM | Cn1c(-c2ccc(C(=O)O)cc2)nc2ccc(O)cc2c1=O [VIII-10, 4-(6-hydroxy-3-methyl-4-oxo-3,4-dihydroquinazolin-2-yl)benzoic acid]

Further lines, the compound ahead of its results:

Row | Structure (SMILES) | IC50
45 | O=C(O)c1ccc(N2CCc3cc(O)ccc3C2=O)cc1 [VIII-4, 4-(6-hydroxy-1-oxo-3,4-dihydroisoquinolin-2(1H)-yl)benzoic acid] | < 100 nM
46 | Oc1ccc2nc(-c3ccc(-c4nnn[nH]4)cc3)sc2c1 [VIII-5, 2-(4-(1H-tetrazol-5-yl)phenyl)benzo[d]thiazol-6-ol] | 100 to 1000 nM
47 | O=C(O)c1ccc(-c2nc3ccc(O)cc3s2)cc1 [VIII-7, 4-(6-hydroxybenzo[d]thiazol-2-yl)benzoic acid] | 100 to 1000 nM
48 | O=C(O)c1ccc(-c2cc(=O)c3cc(O)ccc3[nH]2)c(F)c1 [VIII-8, 3-fluoro-4-(6-hydroxy-4-oxo-1,4-dihydroquinolin-2-yl)benzoic acid] | 1000 to 10000 nM
49 | Cn1c(-c2ccc(C(=O)O)cc2)cc2ccc(O)cc2c1=O [VIII-11, 4-(7-hydroxy-2-methyl-1-oxo-1,2-dihydroisoquinolin-3-yl)benzoic acid] | 100 to 1000 nM
50 | Cc1cc2cc(O)ccc2c(=O)n1[C@H]1CC[C@H](C(=O)O)CC1 [VIII-12, (trans)-4-(6-hydroxy-3-methyl-1-oxoisoquinolin-2(1H)-yl)cyclohexanecarboxylic acid] | 100 to 1000 nM
51 | Cc1cc2cc(O)ccc2c(=O)n1-c1ccc(C(=O)O)cc1 [VIII-13, 4-(6-hydroxy-3-methyl-1-oxoisoquinolin-2(1H)-yl)benzoic acid] | 100 to 1000 nM
